{"source": "ChEMBL document CHEMBL1201862", "about": "“PubChem BioAssay data set” (2004)", "experiment_in_all_cases": "inhibition of tumour cell growth, NCI panel, 48 h", "key": {"SW-620": {"tested_on": "SW-620"}, "HCC 2998": {"tested_on": "HCC 2998"}, "786-0": {"tested_on": "786-0"}, "UO-31": {"tested_on": "UO-31"}, "M14": {"tested_on": "M14"}, "MOLT-4": {"tested_on": "MOLT-4"}, "HOP-62": {"tested_on": "HOP-62"}, "NCI-H226": {"tested_on": "NCI-H226"}, "SNB-75": {"tested_on": "SNB-75"}, "SF-295": {"tested_on": "SF-295"}, "SR": {"tested_on": "SR"}, "NCI-H460": {"tested_on": "NCI-H460"}, "CAKI-1": {"tested_on": "CAKI-1"}, "SK-MEL-2": {"tested_on": "SK-MEL-2"}, "M19-MEL": {"tested_on": "M19-MEL"}, "HT-29": {"tested_on": "HT-29"}, "Hs-578T": {"tested_on": "Hs-578T"}, "MCF7": {"tested_on": "MCF7"}, "MDA-MB-435": {"tested_on": "MDA-MB-435"}, "MDA-N": {"tested_on": "MDA-N"}}, "note": "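Values below derive from 48-hour exposures of cells grown in 96-well plates, with endpoints linearly interpolated between the two concentrations bracketing the appropriate inhibition level. GI50 = concentration required for 50% inhibition of growth.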 Activity calls are given as the source filed them. No stated cut-off is given here; in the data, active = GI50 up to about 1.1 µM and inactive = higher.", "data": [{"smiles": "COC(=O)/C(=N\\O)C(C(=O)C=C(C)C)C(=O)C(=O)Nc1ccccc1C", "note": "(stereo unspecified)", "values": [{"measurement": "GI50", "setting": "SW-620", "value": "> 100 µM (inactive)"}, {"measurement": "GI50", "setting": "HCC 2998", "value": "> 100 µM (inactive)"}, {"measurement": "GI50", "setting": "786-0", "value": "> 100 µM (inactive)"}, {"measurement": "GI50", "setting": "UO-31", "value": "> 100 µM (inactive)"}, {"measurement": "GI50", "setting": "M14", "value": "> 100 µM (inactive)"}, {"measurement": "GI50", "setting": "MOLT-4", "value": "> 100 µM (inactive)"}, {"measurement": "GI50", "setting": "HOP-62", "value": "> 100 µM (inactive)"}, {"measurement": "GI50", "setting": "NCI-H226", "value": "> 100 µM (inactive)"}, {"measurement": "GI50", "setting": "SNB-75", "value": "> 100 µM (inactive)"}, {"measurement": "GI50", "setting": "SF-295", "value": "> 100 µM (inactive)"}, {"measurement": "GI50", "setting": "SR", "value": "> 100 µM (inactive)"}, {"measurement": "GI50", "setting": "NCI-H460", "value": "> 100 µM (inactive)"}, {"measurement": "GI50", "setting": "CAKI-1", "value": "> 100 µM (inactive)"}, {"measurement": "GI50", "setting": "SK-MEL-2", "value": "> 100 µM (inactive)"}, {"measurement": "GI50", "setting": "M19-MEL", "value": "> 100 µM (inactive)"}, {"measurement": "GI50", "setting": "HT-29", "value": "> 100 µM (inactive)"}]}, {"smiles": "Cc1c2ccccc2c(=O)n2c(-c3ccccn3)cccc12", "values": [{"measurement": "GI50", "setting": "SW-620", "value": "> 100 µM (inactive)"}, {"measurement": "GI50", "setting": "HCC 2998", "value": "> 100 µM (inactive)"}, {"measurement": "GI50", "setting": "786-0", "value": "> 100 µM (inactive)"}, {"measurement": "GI50", "setting": "UO-31", "value": "> 100 µM (inactive)"}, {"measurement": "GI50", "setting": "M14", "value": "78.7 µM (inactive)"}, {"measurement": "GI50", "setting": "MOLT-4", "value": "79.8 µM (inactive)"}, {"measurement": "GI50", "setting": "HOP-62", "value": "> 100 µM (inactive)"}, {"measurement": "GI50", "setting": "NCI-H226", "value": "> 100 µM (inactive)"}, {"measurement": "GI50", "setting": "SNB-75", "value": "> 100 µM (inactive)"}, {"measurement": "GI50", "setting": "SF-295", "value": "> 100 µM (inactive)"}, {"measurement": "GI50", "setting": "SR", "value": "54 µM (inactive)"}, {"measurement": "GI50", "setting": "NCI-H460", "value": "> 100 µM (inactive)"}, {"measurement": "GI50", "setting": "CAKI-1", "value": "> 100 µM (inactive)"}, {"measurement": "GI50", "setting": "SK-MEL-2", "value": "> 100 µM (inactive)"}, {"measurement": "GI50", "setting": "M19-MEL", "value": "78 µM (inactive)"}, {"measurement": "GI50", "setting": "HT-29", "value": "> 100 µM (inactive)"}]}, {"smiles": "C/C1=C\\[C@H](C)C[C@H](C)OC(=O)C[C@H](c2ccc(O)cc2)NC(=O)[C@@H](Cc2c(Br)[nH]c3ccccc23)N(C)C(=O)[C@H](C)NC(=O)[C@@H](C)C1", "note": "[JASPAMIDE]", "values": [{"measurement": "GI50", "setting": "SW-620", "value": "0.152 µM (active)"}, {"measurement": "GI50", "setting": "HCC 2998", "value": "0.0499 µM (active)"}, {"measurement": "GI50", "setting": "786-0", "value": "0.128 µM (active)"}, {"measurement": "GI50", "setting": "Hs-578T", "value": "0.0611 µM (active)"}, {"measurement": "GI50", "setting": "UO-31", "value": "0.192 µM (active)"}, {"measurement": "GI50", "setting": "M14", "value": "0.211 µM (active)"}, {"measurement": "GI50", "setting": "MCF7", "value": "0.0895 µM (active)"}, {"measurement": "GI50", "setting": "MOLT-4", "value": "0.682 µM (active)"}, {"measurement": "GI50", "setting": "HOP-62", "value": "0.329 µM (active)"}, {"measurement": "GI50", "setting": "NCI-H226", "value": "0.245 µM (active)"}, {"measurement": "GI50", "setting": "SNB-75", "value": "0.084 µM (active)"}, {"measurement": "GI50", "setting": "MDA-MB-435", "value": "0.063 µM (active)"}, {"measurement": "GI50", "setting": "MDA-N", "value": "0.0834 µM (active)"}, {"measurement": "GI50", "setting": "SF-295", "value": "0.259 µM (active)"}, {"measurement": "GI50", "setting": "SR", "value": "0.0578 µM (active)"}, {"measurement": "GI50", "setting": "NCI-H460", "value": "0.233 µM (active)"}, {"measurement": "GI50", "setting": "CAKI-1", "value": "0.092 µM (active)"}, {"measurement": "GI50", "setting": "M19-MEL", "value": "0.789 µM (active)"}, {"measurement": "GI50", "setting": "HT-29", "value": "0.173 µM (active)"}]}, {"smiles": "CNC(=O)N(C)/N=N/CCCl", "values": [{"measurement": "GI50", "setting": "SW-620", "value": "> 100 µM (inactive)"}, {"measurement": "GI50", "setting": "HCC 2998", "value": "> 100 µM (inactive)"}, {"measurement": "GI50", "setting": "786-0", "value": "> 100 µM (inactive)"}, {"measurement": "GI50", "setting": "Hs-578T", "value": "> 100 µM (inactive)"}, {"measurement": "GI50", "setting": "UO-31", "value": "> 100 µM (inactive)"}, {"measurement": "GI50", "setting": "M14", "value": "> 100 µM (inactive)"}, {"measurement": "GI50", "setting": "MCF7", "value": "> 100 µM (inactive)"}, {"measurement": "GI50", "setting": "MOLT-4", "value": "> 100 µM (inactive)"}, {"measurement": "GI50", "setting": "HOP-62", "value": "> 100 µM (inactive)"}, {"measurement": "GI50", "setting": "NCI-H226", "value": "> 100 µM (inactive)"}, {"measurement": "GI50", "setting": "SNB-75", "value": "> 100 µM (inactive)"}, {"measurement": "GI50", "setting": "MDA-MB-435", "value": "> 100 µM (inactive)"}, {"measurement": "GI50", "setting": "MDA-N", "value": "> 100 µM (inactive)"}, {"measurement": "GI50", "setting": "SF-295", "value": "> 100 µM (inactive)"}, {"measurement": "GI50", "setting": "SR", "value": "> 100 µM (inactive)"}, {"measurement": "GI50", "setting": "NCI-H460", "value": "> 100 µM (inactive)"}, {"measurement": "GI50", "setting": "CAKI-1", "value": "> 100 µM (inactive)"}, {"measurement": "GI50", "setting": "SK-MEL-2", "value": "> 100 µM (inactive)"}, {"measurement": "GI50", "setting": "M19-MEL", "value": "> 100 µM (inactive)"}, {"measurement": "GI50", "setting": "HT-29", "value": "> 100 µM (inactive)"}]}]}
